In brackets after ≈: the same amount, converted by molar mass.

The assay has as its system A. baumannii strain ATCC19606. Briefly: Minimum inhibitory concentration (MIC) determination, microbroth dilution (CLSI). In kind it is cell-based. Conditions: Acinetobacter baumannii; A. baumannii ATCC19606; CAMHB; read after 20 hours; >=80% growth inhibition; read-out: ATCC19606 MIC. The method in brief: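 After 20 h at 35±2 °C, MIC taken visually and by OD 600 nm as the lowest concentration giving ≥80% growth inhibition. Bacteria (~5×10^5 CFU/ml) were tested per CLSI microbroth dilution against twofold serial compound dilutions in cation-adjusted Mueller Hinton broth.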
(In general: Dilution methods test growth across graded concentrations, often in twofold steps.)
`CN1C(=O)[C@H](CCCCN)NC(=O)[C@H](CCCN)NCc2cccnc2Sc2c(Cl)cc(-c3ccc(C#N)cc3)cc2CNC(=O)[C@@H]1Cc1c[nH]c2ccccc12` [Example 211, 4-[(11S,14S,17S)-14-(4-Amino-butyl)-11-(3-amino-propyl)-25-chloro-17-(1H-indol-3-ylmethyl)-16-methyl-12,15,18-trioxo-2-thia-4,10,13,16,19-pentaaza-tricyclo[19.4.0.0*3,8*]pentacosa-1(25),3(8),4,6,21,23-hexaen-23-yl]-benzonitrile]: the MIC worked out at 16 µg/mL (≈ 19.8 µM).
As for `CN1C(=O)[C@H](CCCCN)NC(=O)[C@H](CCCN)NCc2ccccc2Sc2ncc(Cl)cc2CNC(=O)[C@@H]1Cc1c[nH]c2ccccc12` [Example 179], the MIC came out at 32 µg/mL (≈ 45.4 µM).
The figure for `CN1C(=O)[C@H](CCCCN)NC(=O)C(C)(C)NCc2cccnc2Sc2c(Cl)cc(Cl)cc2CNC(=O)[C@@H]1Cc1c[nH]c2ccccc12` [Example 107, (14S,17S)-14-(4-Amino-butyl)-23,25-dichloro-17-(1H-indol-3-ylmethyl)-11,11,16-trimethyl-2-thia-4,10,13,16,19-pentaaza-tricyclo[19.4.0.0*3,8*]pentacosa-1(25),3,5,7,21,23-hexaene-12,15,18-trione] is 8 µg/mL (≈ 11.3 µM).
As for `CN1C(=O)[C@H](CCCCN)NC(=O)[C@H](CCCN)NCc2cccnc2Sc2ccc(Cl)cc2CNC(=O)[C@@H]1Cc1c[nH]c2ccccc12` [Example 33, (11S,14S,17S)-14-(4-Amino-butyl)-11-(3-amino-propyl)-23-chloro-17-(1H-indol-3-ylmethyl)-16-methyl-2-thia-4,10,13,16,19-pentaaza-tricyclo[19.4.0.0*3,8*]pentacosa-1(25),3,5,7,21,23-hexaene-12,15,18-trione], the MIC is 1 µg/mL (≈ 1.42 µM).
Regarding `CN1C(=O)[C@H](CCCCN)NC(=O)[C@H](CCCN)NCc2ccccc2Sc2c(Cl)cc(C(F)(F)F)cc2CNC(=O)[C@@H]1Cc1c[nH]c2ccccc12` [Example 25, (12S,15S,18S)-15-(4-Amino-butyl)-18-(3-amino-propyl)-4-chloro-12-(1H-indol-3-ylmethyl)-13-methyl-6-trifluoromethyl-2-thia-10,13,16,19-tetraaza-tricyclo[19.4.0.0*3,8*]pentacosa-1(25),3,5,7,21,23-hexaene-11,14,17-trione], the MIC was found to be 1 µg/mL (≈ 1.29 µM).
Take `CN1C(=O)[C@H](CCCCN)NC(=O)[C@H](CCCN)NCc2ccccc2Sc2ccc(Cl)c(Cl)c2CNC(=O)[C@@H]1Cc1c[nH]c2ccccc12` [Example 21, (12S,15S,18S)-15-(4-Amino-butyl)-18-(3-amino-propyl)-6,7-dichloro-12-(1H-indol-3-ylmethyl)-13-methyl-2-thia-10,13,16,19-tetraaza-tricyclo[19.4.0.0*3,8*]pentacosa-1(25),3,5,7,21,23-hexaene-11,14,17-trione]: the MIC turned out to be 1 µg/mL (≈ 1.35 µM).
Take `CN1C(=O)[C@H](CCCCN)NC(=O)[C@H](CCCN)NCc2cccnc2Sc2c(Cl)ccc(C(F)(F)F)c2CNC(=O)[C@@H]1Cc1c[nH]c2ccc(F)cc12` [Example 131, (11S,14S,17S)-14-(4-Amino-butyl)-11-(3-amino-propyl)-25-chloro-17-(5-fluoro-1H-indol-3-ylmethyl)-16-methyl-22-trifluoromethyl-2-thia-4,10,13,16,19-pentaaza-tricyclo[19.4.0.0*3,8*]pentacosa-1(25),3,5,7,21,23-hexaene-12,15,18-trione]: the MIC was determined as 0.25 µg/mL (≈ 0.316 µM).
Turning to `COc1cc(-c2cc(Cl)c3c(c2)CNC(=O)[C@H](Cc2c[nH]c4ccccc24)N(C)C(=O)[C@H](CCCCN)NC(=O)[C@H](CCCN)NCc2cccnc2S3)ccn1` [Example 102, (11S,14S,17S)-14-(4-Amino-butyl)-11-(3-amino-propyl)-25-chloro-17-(1H-indol-3-ylmethyl)-23-(2-methoxy-pyridin-4-yl)-16-methyl-2-thia-4,10,13,16,19-pentaaza-tricyclo[19.4.0.0*3,8*]pentacosa-1(25),3,5,7,21,23-hexaene-12,15,18-trione], the MIC is 0.5 µg/mL (≈ 0.615 µM).
As to `CN1C(=O)[C@H](CCCCN)NC(=O)[C@H](CCCN)NCc2cccnc2Sc2c(Cl)cc(-c3ccccn3)cc2CNC(=O)[C@@H]1Cc1c[nH]c2ccccc12` [Example 150, (11S,14S,17S)-14-(4-Amino-butyl)-11-(3-amino-propyl)-25-chloro-17-(1H-indol-3-ylmethyl)-16-methyl-23-pyridin-2-yl-2-thia-4,10,13,16,19-pentaaza-tricyclo[19.4.0.0*3,8*]pentacosa-1(25),3(8),4,6,21,23-hexaene-12,15-18-trione], the MIC worked out at 1 µg/mL (≈ 1.28 µM).
Turning to `CN1C(=O)[C@H](CCCCN)NC(=O)[C@H](CCCN)NCc2cccnc2Sc2c(Cl)ccc(F)c2CNC(=O)[C@@H]1Cc1c[nH]c2ccccc12` [Example 54, (11S,14S,17S)-14-(4-Amino-butyl)-1-(3-amino-propyl)-25-chloro-22-fluoro-17-(1H-indol-3-ylmethyl)-16-methyl-2-thia-4,10,13,16,19-pentaaza-tricyclo[19.4.0.0*3,8*]pentacosa-1(25),3(8),4,6,21,23-hexaene-12,15,18-trione], the MIC stood at 1 µg/mL (≈ 1.38 µM).
Regarding `COc1ccc2c(c1)CNC(=O)[C@H](Cc1c(C)[nH]c3ccccc13)N(C)C(=O)[C@H](CCCCN)NC(=O)[C@H](CCCN)NCc1ccccc1S2` [Example 71, (12S,15S,18S)-15-(4-Amino-butyl)-18-(3-amino-propyl)-6-methoxy-13-methyl-12-(2-methyl-1H-indol-3-ylmethyl)-2-thia-10,13,16,19-tetraaza-tricyclo[19.4.0.0*3,8*]pentacosa-1(21),3,5,7,22,24-hexaene-11,14,17-trione], the MIC turned out to be 0.5 µg/mL (≈ 0.7 µM).
Take `Cc1cc(-c2ccc(Cl)c3c2CNC(=O)[C@H](Cc2c[nH]c4ccccc24)N(C)C(=O)[C@H](CCCCN)NC(=O)[C@H](CCCN)NCc2cccnc2S3)ccn1` [Example 212, (11S,14S,17S)-14-(4-Amino-butyl)-11-(3-amino-propyl)-25-chloro-17-(1H-indol-3-ylmethyl)-16-methyl-22-(2-methyl-pyridin-4-yl)-2-thia-4,10,13,16,19-pentaaza-tricyclo[19.4.0.0*3,8*]pentacosa-1(25),3(8),4,6,21,23-hexaene-12,15,18-trione]: the MIC is 32 µg/mL (≈ 40.2 µM).
The figure for `CCN1C(=O)[C@H](CCCCN)NC(=O)[C@H](CCCN)NCc2cccnc2Sc2c(Cl)ccc(Cl)c2CNC(=O)[C@@H]1Cc1c[nH]c2ccccc12` [Example 78, (11S,14S,17S)-14-(4-Amino-butyl)-11-(3-amino-propyl)-22,25-dichloro-16-ethyl-17-(1H-indol-3-ylmethyl)-2-thia-4,10,13,16,19-pentaaza-tricyclo[19.4.0.0*3,8*]pentacosa-1(25),3(8),4,6,21,23-hexaene-12,15,18-trione] is 0.25 µg/mL (≈ 0.332 µM); for `CN1C(=O)[C@H](CCCCN)NC(=O)[C@H](CCCN)NCc2ccccc2Sc2c(Cl)ccc(F)c2CNC(=O)[C@@H]1Cc1c[nH]c2ccccc12` [Example 26, (12S,15S,18S)-15-(4-Amino-butyl)-18-(3-amino-propyl)-4-chloro-7-fluoro-12-(1H-indol-3-ylmethyl)-13-methyl-2-thia-10,13,16,19-tetraaza-tricyclo[19.4.0.0*3,8*]pentacosa-1(25),3,5,7,21,23-hexaene-11,14,17-trione] it is 1 µg/mL (≈ 1.38 µM); for `CN1C(=O)[C@H](CCCCN)NC(=O)[C@H](CCCN)NCc2ccccc2Sc2c(cccc2C(F)(F)F)CNC(=O)[C@@H]1Cc1c[nH]c2ccccc12` [Example 12, (12S,15S,18S)-15-(4-Amino-butyl)-18-(3-amino-propyl)-12-(1H-indol-3-ylmethyl)-13-methyl-4-trifluoromethyl-2-thia-10,13,16,19-tetraaza-tricyclo[19.4.0.0*3,8*]pentacosa-1(21),3,5,7,22,24-hexaene-11,14,17-trione] it is 0.5 µg/mL (≈ 0.678 µM).
Take `Cc1cccc2c1Sc1ccccc1CN[C@@H](CCCN)C(=O)N[C@@H](CCCCN)C(=O)N(C)[C@@H](Cc1c[nH]c3ccccc13)C(=O)NC2` [Example 8, (12S,15S,18S)-15-(4-Amino-butyl)-18-(3-amino-propyl)-12-(1H-indol-3-ylmethyl)-4,13-dimethyl-2-thia-10,13,16,19-tetraaza-tricyclo[19.4.0.0*3,8*]pentacosa-1(21),3,5,7,22,24-hexaene-11,14,17-trione]: the minimum inhibitory concentration (MIC) came to 0.5 µg/mL (≈ 0.731 µM).
For `CN1C(=O)[C@H](CCCCN)NC(=O)[C@H](CO)NCc2cccnc2Sc2c(Cl)cc(Cl)cc2CNC(=O)[C@@H]1Cc1c[nH]c2ccccc12` [Example 96, (11S,14S,17S)-14-(4-Amino-butyl)-23,25-dichloro-11-hydroxymethyl-17-(1H-indol-3-ylmethyl)-16-methyl-2-thia-4,10,13,16,19-pentaaza-tricyclo[19.4.0.0*3,8*]pentacosa-1(25),3,5,7,21,23-hexaene-12,15,18-trione], the minimal inhibitory concentration (MIC) turned out to be 4 µg/mL (≈ 5.61 µM).
As for `Cc1[nH]c2ccccc2c1C[C@H]1C(=O)NCc2cc(-c3ccnc(F)c3)cc(Cl)c2Sc2ncccc2CN[C@@H](CCCN)C(=O)N[C@@H](CCCCN)C(=O)N1C` [Example 183, (11S,14S,17S)-14-(4-Amino-butyl)-11-(3-amino-propyl)-25-chloro-23-(2-fluoro-pyridin-4-yl)-16-methyl-17-(2-methyl-1H-indol-3-ylmethyl)-2-thia-4,10,13,16,19-pentaaza-tricyclo[19.4.0.0*3,8*]pentacosa-1(25),3(8),4,6,21,23-hexaene-12,15,18-trione], the MIC stood at 0.25 µg/mL (≈ 0.307 µM).
With `CN1C(=O)[C@H](CCCCN)NC(=O)CNCc2cccnc2Sc2c(Cl)cc(Cl)cc2CNC(=O)[C@@H]1Cc1c[nH]c2ccccc12` [Example 93, (14S,17S)-14-(4-Amino-butyl)-23,25-dichloro-17-(1H-indol-3-ylmethyl)-16-methyl-2-thia-4,10,13,16,19-pentaaza-tricyclo[19.4.0.0*3,8*]pentacosa-1(25),3,5,7,21,23-hexaene-12,15,18-trione], the MIC was 16 µg/mL (≈ 23.4 µM).
Regarding `CN1C(=O)[C@H](CCCCN)NC(=O)[C@H](CCCN)NCc2ccccc2Sc2ccnc(N3CCOCC3)c2CNC(=O)[C@@H]1Cc1c[nH]c2ccccc12` [Example 193], the MIC was 64 µg/mL (≈ 84.7 µM).

For orientation: MIC means the lowest concentration found to suppress growth.

For the origin of these results see patent publication US10030047B2 (Hoffmann-La Roche Inc., priority 2015, dated 2018).
